Laboratory results published in patent US20170051149A1, “AZOARYLS AS REVERSIBLY MODULATABLE TUBULIN INHIBITORS” (ECOLE NORMALE SUPERIEURE DE LYON, priority 2014, published 2017).
Like-named read-outs stand apart in the source and are kept apart here.

How the values were obtained:
Assay in all cases: nuclear fragmentation (subG1, Nicoletti), induction of apoptosis
Format in all cases: cell-based
MDA-MB-231 cells = details: for mean % subG1 phase: MDA-MB-231, dark, 48 hours; for EC50: Homo sapiens, MDA-MB-231, 48 h, 48 h, read-out: EC50, 50% increase of the subG1 population percentage
Procedure: (§1) Different cell types, including MDA-MB-231, Jurkat, HeLa and HepG2 cells, were treated with indicated concentrations of compound I.1 and exposed to a 390 nm toxic regime, a rescue regime with both 390 nm and 515 nm light, or kept in the dark. Following the treatment, cells were stained with PI and the percentage of cells containing a hypodiploid amount of DNA (subG1 phase of cell cycle), was determined. Briefly, prior to analysis, cells were harvested on ice and incubated in a hypotonic buffer [0.1% sodium citrate, 0.1% Triton X-100 and 50 μg/mL propidium iodide (PI)] for 30 min at 4° C. Following the PI staining cells were analysed by flow cytometry using FACSCalibur flow cytometer (Becton Dickinson, Heidelberg, Germany) and Cell Quest Pro Software (Becton Dickinson).

Jurkat cells = details: 48 h
Procedure: as §1

HeLa cells = details: 30 h
Procedure: as §1

HepG2 cells = details: 48 h
Procedure: as §1

SMILES: COc1ccc(N=Nc2cc(OC)c(OC)c(OC)c2)cc1O [I.1, 2-methoxy-5-((3,4,5-trimethoxyphenyl)diazenyl)phenol]
- mean % subG1 phase (MDA-MB-231 cells; 75 μM): 7.9%
- mean % subG1 phase (MDA-MB-231 cells; 85 μM): 12.7%
- mean % subG1 phase (MDA-MB-231 cells; 100 μM): 26.8%
- mean % subG1 phase (MDA-MB-231 cells; 125 μM): 51.1%
- mean % subG1 phase (MDA-MB-231 cells; 150 μM): 92.2%
- mean % subG1 phase (MDA-MB-231 cells; 175 μM): 95.7%
- mean % subG1 phase (MDA-MB-231 cells; 200 μM): 95.5%
- EC50 (MDA-MB-231 cells; 390 nm regimen): ~1 µM
- EC50 (MDA-MB-231 cells; in the dark): ~120 µM
- mean % subG1 phase (Jurkat cells; 5 nM, 390 nm (350 ms pulses every 5 min)): 2.7%
- mean % subG1 phase (Jurkat cells; 5 nM, dark): 3.0%
- mean % subG1 phase (Jurkat cells; 50 nM, 390 nm (350 ms pulses every 5 min)): 4.9%
- mean % subG1 phase (Jurkat cells; 50 nM, dark): 3.4%
- mean % subG1 phase (Jurkat cells; 100 nM, 390 nm (350 ms pulses every 5 min)): 9.1%
- mean % subG1 phase (Jurkat cells; 100 nM, dark): 3.5%
- mean % subG1 phase (Jurkat cells; 150 nM, 390 nm (350 ms pulses every 5 min)): 18.5%
- mean % subG1 phase (Jurkat cells; 150 nM, dark): 3.3%
- mean % subG1 phase (Jurkat cells; 200 nM, 390 nm (350 ms pulses every 5 min)): 49.7%
- mean % subG1 phase (Jurkat cells; 200 nM, dark): 3.0%
- mean % subG1 phase (Jurkat cells; 400 nM, 390 nm (350 ms pulses every 5 min)): 88.5%
- mean % subG1 phase (Jurkat cells; 400 nM, dark): 4.4%
- mean % subG1 phase (Jurkat cells; 800 nM, 390 nm (350 ms pulses every 5 min)): 89.5%
- mean % subG1 phase (Jurkat cells; 800 nM, dark): 5.5%
- mean % subG1 phase (Jurkat cells; 1.5 μM, 390 nm (350 ms pulses every 5 min)): 89.6%
- mean % subG1 phase (Jurkat cells; 1.5 μM, dark): 7.9%
- mean % subG1 phase (Jurkat cells; 5 μM, 390 nm (350 ms pulses every 5 min)): 91.0%
- mean % subG1 phase (Jurkat cells; 5 μM, dark): 12.0%
- mean % subG1 phase (HeLa cells; 200 nM, 390 nm light (1 s pulses every 15 min)): 2.4%
- mean % subG1 phase (HeLa cells; 200 nM, dark): 1.8%
- mean % subG1 phase (HeLa cells; 600 nM, 390 nm light (1 s pulses every 15 min)): 6.2%
- mean % subG1 phase (HeLa cells; 600 nM, dark): 2.3%
- mean % subG1 phase (HeLa cells; 1.5 μM, 390 nm light (1 s pulses every 15 min)): 16.1%
- mean % subG1 phase (HeLa cells; 1.5 μM, dark): 2.9%
- mean % subG1 phase (HeLa cells; 5 μM, 390 nm light (1 s pulses every 15 min)): 12.8%
- mean % subG1 phase (HeLa cells; 5 μM, dark): 3.2%
- mean % subG1 phase (HepG2 cells; 100 nM, HepG2, 390 nm light (250 ms pulses every 15 s)): 5.4%
- mean % subG1 phase (HepG2 cells; 100 nM, HepG2, dark): 2.5%
- mean % subG1 phase (HepG2 cells; 600 nM, HepG2, 390 nm light (250 ms pulses every 15 s)): 5.2%
- mean % subG1 phase (HepG2 cells; 600 nM, HepG2, dark): 3.1%
- mean % subG1 phase (HepG2 cells; 1 μM, HepG2, 390 nm light (250 ms pulses every 15 s)): 4.6%
- mean % subG1 phase (HepG2 cells; 1 μM, HepG2, dark): 2.3%
- mean % subG1 phase (HepG2 cells; 3 μM, HepG2, 390 nm light (250 ms pulses every 15 s)): 6.5%
- mean % subG1 phase (HepG2 cells; 3 μM, HepG2, dark): 1.9%
- mean % subG1 phase (HepG2 cells; 10 μM, HepG2, 390 nm light (250 ms pulses every 15 s)): 14%
- mean % subG1 phase (HepG2 cells; 10 μM, HepG2, dark): 2.8%
